Where two headings read alike, the source gives them in different places.
What was measured:
[1] = test system: tobacco cutworm (Spodoptera litura); assay: Test Example 1: mortality of third-instar larvae of tobacco cutworm on cabbage, 3 days; assay type: in vivo; conditions: 72 h
Experimental: Ten third-instar larvae of tobacco cutworm (Spodoptera litura) were placed on a cabbage (one-month-old seedling) planted in a pot, and a 50% emulsion of the compound to be tested was diluted to a specified concentration and applied to the leaves of the plant to fully wet them. The test compound of each specified concentration was tested on two pots.

[2] = test system: green rice leafhopper (Nephotettix cincticeps); assay: Test Example 2: mortality of female adults of green rice leafhopper on paddy rice, 3 days; assay type: in vivo; conditions: 72 h
Experimental: An emulsion of specified concentration was prepared from a 50% wettable powder of the compound to be tested and applied to the leaves of paddy rice (one-month-old seedlings) planted in a pot to fully wet the leaves. After the emulsion had been dried, the pot was covered with a net cage, into which 10 female adults of green rice leafhopper (Nephotettix cincticeps) were released. The compound of each specified concentration was tested on two pots.

[3] = 125 ppm active ingredient, 3 days, read-out: Mortality
[4] = 250 ppm active ingredient, 3 days, read-out: Mortality
[5] = 500 ppm active ingredient, 3 days, read-out: Mortality
[6] = 1000 ppm active ingredient, 3 days, read-out: Mortality
[7] = 200 ppm active ingredient, 3 days, read-out: Mortality
[8] = 400 ppm active ingredient, 3 days, read-out: Mortality
[9] = 800 ppm active ingredient, 3 days, read-out: Mortality

| Structure (SMILES) | mortality at 125 ppm [1, 3] [%] | mortality at 250 ppm [1, 4] [%] | mortality at 500 ppm [1, 5] [%] | mortality at 1000 ppm [1, 6] [%] | mortality at 200 ppm [2, 7] [%] | mortality at 400 ppm [2, 8] [%] | mortality at 800 ppm [2, 9] [%] | mortality at 125 ppm [1] [%] | mortality at 250 ppm [1] [%] | mortality at 500 ppm [1] [%] | mortality at 1000 ppm [1] [%] | mortality at 200 ppm [2] [%] | mortality at 400 ppm [2] [%] | mortality at 800 ppm [2] [%] |
| --- | --- | --- | --- | --- | --- | --- | --- | --- | --- | --- | --- | --- | --- | --- |
| COC(=O)CCN(CCOC(C)C)SN(C)C(=O)ON=C(C)SC [Example 21] | 100 | 100 | 100 | 100 | 85 | 100 | 100 |  |  |  |  |  |  |  |
| COC(=O)CCN(CCOC(C)C)SN(C)C(=O)Oc1cccc2c1OC(C)(C)C2 [Example 9] |  |  |  |  |  |  |  | 40 | 60 | 80 | 90 | 75 | 90 | 100 |
| CCOC(=O)CN(CCOC)SN(C)C(=O)ON=C(C)SC [Example 19] | 90 | 100 | 100 | 100 | 90 | 100 | 100 |  |  |  |  |  |  |  |
| COC(=O)CCN(CCCOc1ccccc1)SN(C)C(=O)ON=C(C)SC [Example 20] | 90 | 95 | 100 | 100 | 80 | 90 | 100 |  |  |  |  |  |  |  |
| COCCN(CCC(=O)OC)SN(C)C(=O)ON=C(C)SC [Example 3, S-methyl N-[{N-methyl-N-(N-methoxyethyl-N-methoxycarbonylethylaminosulfenyl)carbamoyl}oxy]-thioacetimidate] | 55 | 70 | 85 | 90 | 65 | 90 | 100 |  |  |  |  |  |  |  |
| COCCN(CCC#N)SN(C)C(=O)ON=C(C)SC [Example 17] | 85 | 95 | 100 | 100 | 80 | 95 | 100 |  |  |  |  |  |  |  |
| CCCCOC(=O)CCN(CCOC)SN(C)C(=O)Oc1cccc2c1OC(C)(C)C2 [Example 12] |  |  |  |  |  |  |  | 40 | 55 | 75 | 85 | 70 | 85 | 100 |
| COC(=O)CCN(CCOC1CCCCC1)SN(C)C(=O)Oc1cccc2c1OC(C)(C)C2 [Example 10] |  |  |  |  |  |  |  | 35 | 50 | 70 | 85 | 65 | 85 | 100 |
| COC(=O)CCN(CCCCOc1ccccc1)SN(C)C(=O)Oc1cccc2c1OC(C)(C)C2 [Example 14] |  |  |  |  |  |  |  | 35 | 50 | 70 | 80 | 65 | 85 | 100 |
| CCOC(=O)CN(CCCOC)SN(C)C(=O)Oc1cccc2c1OC(C)(C)C2 [Example 6] |  |  |  |  |  |  |  | 55 | 70 | 80 | 90 | 70 | 95 | 100 |
| COC(=O)CCN(CCCCCOc1ccccc1)SN(C)C(=O)Oc1cccc2c1OC(C)(C)C2 [Example 15] |  |  |  |  |  |  |  | 40 | 50 | 70 | 80 | 65 | 80 | 100 |
| COCCCN(CCC(=O)OC)SN(C)C(=O)ON=C(C)SC [Example 16] | 100 | 100 | 100 | 100 | 90 | 100 | 100 |  |  |  |  |  |  |  |
| COC(=O)CCN(CCOCc1ccccc1)SN(C)C(=O)Oc1cccc2c1OC(C)(C)C2 [Example 13] |  |  |  |  |  |  |  | 40 | 55 | 70 | 85 | 65 | 85 | 100 |
| CC(C)OCCCN(CCC#N)SN(C)C(=O)Oc1cccc2c1OC(C)(C)C2 [Example 11] |  |  |  |  |  |  |  | 35 | 50 | 70 | 80 | 70 | 90 | 100 |
| COC(=O)CCN(CCOC1CCCCC1)SN(C)C(=O)ON=C(C)SC [Example 22] | 90 | 100 | 100 | 100 | 80 | 95 | 100 |  |  |  |  |  |  |  |
| COC(=O)CCN(CCCOc1ccccc1)SN(C)C(=O)Oc1cccc2c1OC(C)(C)C2 [Example 7] |  |  |  |  |  |  |  | 40 | 60 | 75 | 85 | 60 | 80 | 100 |
| COC(=O)CCN(CCCCOc1ccccc1)SN(C)C(=O)ON=C(C)SC [Example 25] | 80 | 90 | 100 | 100 | 85 | 90 | 100 |  |  |  |  |  |  |  |
| CNC(=O)ON=C(C)SC [Control*] | 85 | 90 |  |  |  |  |  |  |  |  |  |  |  |  |
| CCCCOC(=O)CCN(CCOC)SN(C)C(=O)ON=C(C)SC [Example 24] | 80 | 95 | 100 | 100 | 85 | 95 | 100 |  |  |  |  |  |  |  |
| COCCN(CC#N)SN(C)C(=O)ON=C(C)SC [Example 18] | 100 | 100 | 100 | 100 | 80 | 95 | 100 |  |  |  |  |  |  |  |
| CCOCCN(CCC(=O)OC)SN(C)C(=O)Oc1cccc2c1OC(C)(C)C2 [Example 8] |  |  |  |  |  |  |  | 40 | 60 | 80 | 90 | 75 | 90 | 100 |
| CSC(C)=NOC(=O)N(C)SN(CCC#N)CCCOC(C)C [Example 23] | 85 | 95 | 100 | 100 | 80 | 95 | 100 |  |  |  |  |  |  |  |
| COCCCN(CCC(=O)OC)SN(C)C(=O)Oc1cccc2c1OC(C)(C)C2 [Example 1, 2,3-dihydro-2,2-dimethylbenzofuran-7-yl N-[N-(3-methoxypropyl)-N-methoxycarbonylethylaminosulfenyl]N-methyl carbamate] |  |  |  |  |  |  |  | 40 | 65 | 80 | 90 | 70 | 90 | 100 |
